Test results: patent US11746087B1, “C4-carboxylic acid-substituted tryptamine derivatives and methods of using” (priority 2022, dated 2023)
“And” between values parts separate entries of the source, which are not always exact repeats. Equal entries are not always repeated. Where two headings read alike, the source gives them in different places.

Tests used:
5-HT2A receptor = target: T1, 5-HT2A receptor (Mus musculus, UniProt P35363); experiment: Drug-induced Head Twitch Response (HTR); type: in vivo; details: C57BL/6 mice; 1 mg/kg i.p.; 15-to-30-minute window after administration
T1 construct: 8-week old C57BL/6-Elite male and female mice were obtained from Charles River; tissue Charles River; host or cells: living C57BL/6-Elite mice (neuronal receptor, in vivo)

[1] = Mouse PK study (IV and PO), plasma parent compound and psilocin by LC-MS/MS; type: in vivo; details: for Plasma concentration of psilocin: BLQ = below 0.5 ng/mL; for F: C(XX); for concentration at 5 min / concentration at 0.25 h / concentration at 0.5 h / concentration at 1 h / concentration at 2 h / concentration at 4 h: intravenous, read-out: Plasma concentration of C(XX)
From the text: Briefly, the procedure was as follows. […] 19, 2022.

[2] = 10 mg/kg oral C(XX), individual animals
[3] = C(XX) in plasma, 1 mg/kg i.v. C(XX), Mean ± SD
[4] = C(XX) in plasma, 1 mg/kg i.v. C(XX), per animal, 1 mg/kg
[5] = C(XX) in plasma, 1 mg/kg oral C(XX), per animal, 1 mg/kg
[6] = C(XX) in plasma, 3 mg/kg oral C(XX), Mean ± SD
[7] = C(XX) in plasma, 3 mg/kg oral C(XX), per animal, 3 mg/kg
[8] = male, C57Bl/6, mouse, plasma, 1 mg/kg, 1 mg/kg i.v. C(XX), Mean ± SD
[9] = male, C57Bl/6, mouse, plasma, 1 mg/kg, 1 mg/kg i.v. C(XX), per animal, BLQ <0.25 ng/mL

T1 sequence (P35363 whole entry): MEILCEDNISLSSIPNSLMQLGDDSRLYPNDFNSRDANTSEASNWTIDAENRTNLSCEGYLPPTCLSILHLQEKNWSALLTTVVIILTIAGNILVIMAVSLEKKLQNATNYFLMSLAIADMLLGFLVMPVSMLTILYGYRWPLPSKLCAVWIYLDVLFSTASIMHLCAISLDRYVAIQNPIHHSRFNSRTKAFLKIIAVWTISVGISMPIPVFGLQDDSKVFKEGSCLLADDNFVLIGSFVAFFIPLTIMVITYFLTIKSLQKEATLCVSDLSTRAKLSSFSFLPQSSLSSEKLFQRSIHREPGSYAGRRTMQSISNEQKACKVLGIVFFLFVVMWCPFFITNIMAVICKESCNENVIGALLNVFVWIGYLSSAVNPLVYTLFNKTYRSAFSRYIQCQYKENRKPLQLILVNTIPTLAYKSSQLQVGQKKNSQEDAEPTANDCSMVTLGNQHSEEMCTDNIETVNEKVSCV

Structure (SMILES): CN(C)CCc1c[nH]c2cccc(OC(=O)c3cccc4c3OCCO4)c12 [C(XX)]
- Head Twitch Response (HTR) incidence relative to vehicle (5-HT2A receptor): Elevated incidences of HTR
- Plasma concentration of C(XX) ([1]; 1 mg/kg i.v. C(XX), 6 h, per animal, BLQ <0.25 ng/mL): BLQ
- Plasma concentration of psilocin ([1]; 1 mg/kg i.v. C(XX), 8 h, individual animals): BLQ
- Plasma concentration of C(XX) ([1]; 1 mg/kg i.v. C(XX), 8 h, per animal, BLQ <0.25 ng/mL): BLQ and No (2×)
- AUC0-tlast/Dose of C(XX) in plasma ([1]; 1 mg/kg i.v. C(XX), mean ± SD): 52.8 ± 8.30 kg·ng·h/mL/mg
- Plasma concentration of C(XX) ([1]; 1 mg/kg oral C(XX), 2 h, per animal, BLQ <0.25 ng/mL): BLQ
- Plasma concentration of C(XX) ([1]; 1 mg/kg oral C(XX), 4 h, per animal, BLQ <0.25 ng/mL): BLQ
- Plasma concentration of C(XX) ([1]; 1 mg/kg oral C(XX), 6 h, per animal, BLQ <0.25 ng/mL): No Peak (2×) and BLQ
- Plasma concentration of C(XX) ([1]; 1 mg/kg oral C(XX), 8 h, per animal, BLQ <0.25 ng/mL): No Peak (2×) and BLQ
- Plasma concentration of psilocin ([1]; 1 mg/kg oral C(XX), 24 h, individual animals): BLQ
- Plasma concentration of C(XX) ([1]; 1 mg/kg oral C(XX), 24 h, per animal, BLQ <0.25 ng/mL): No Peak
- Cmax/Dose of C(XX) in plasma ([1]; 1 mg/kg p.o. C(XX), mean ± SD): 0.620 kg·ng/mL/mg
- Plasma concentration of C(XX) ([1]; 3 mg/kg oral C(XX), 4 h, per animal, BLQ <0.25 ng/mL): No Peak (2×) and BLQ
- Plasma concentration of C(XX) ([1]; 3 mg/kg oral C(XX), 6 h, per animal, BLQ <0.25 ng/mL): No Peak and BLQ (2×)
- Plasma concentration of C(XX) ([1]; 3 mg/kg oral C(XX), 8 h, per animal, BLQ <0.25 ng/mL): No Peak and BLQ (2×)
- Plasma concentration of psilocin ([1]; 3 mg/kg oral C(XX), 24 h, individual animals): BLQ
- Plasma concentration of C(XX) ([1]; 3 mg/kg oral C(XX), 24 h, per animal, BLQ <0.25 ng/mL): No Peak
- AUC0-tlast/Dose of C(XX) in plasma ([1]; 3 mg/kg p.o. C(XX), mean ± SD): 0.458 kg·ng·h/mL/mg
- Cmax/Dose of C(XX) in plasma ([1]; 3 mg/kg p.o. C(XX), mean ± SD): 0.571 kg·ng/mL/mg
- F(%) of C(XX) ([1]; 3 mg/kg p.o. C(XX), mean ± SD): 0.953%
- Plasma concentration of C(XX) ([1]; 10 mg/kg oral C(XX), 4 h, per animal, BLQ <0.25 ng/mL): BLQ
- Plasma concentration of C(XX) ([1]; 10 mg/kg oral C(XX), 6 h, per animal, BLQ <0.25 ng/mL): BLQ
- Plasma concentration of C(XX) ([1]; 10 mg/kg oral C(XX), 8 h, per animal, BLQ <0.25 ng/mL): BLQ
- Plasma concentration of psilocin ([1]; 10 mg/kg oral C(XX), 24 h, individual animals): BLQ
- Plasma concentration of C(XX) ([1]; 10 mg/kg oral C(XX), 24 h, per animal, BLQ <0.25 ng/mL): No Peak
- AUC0-tlast/Dose of C(XX) in plasma [1, 2]: 0.565 kg·ng·h/mL/mg and 0.499 kg·ng·h/mL/mg and 0.916 kg·ng·h/mL/mg
- Cmax of C(XX) in plasma [1, 2]: 2.99 ng/mL and 9.12 ng/mL and 10.3 ng/mL
- Cmax/Dose of C(XX) in plasma [1, 2]: 0.299 kg·ng/mL/mg and 0.912 kg·ng/mL/mg and 1.03 kg·ng/mL/mg
- MRT0-inf of C(XX) in plasma [1, 2]: 48 min and 214 min
- F(%) of C(XX) ([1]; 10 mg/kg oral C(XX), individual animals, AUC0-tlast used, might be under-estimated): 1.07% and 0.941% and 1.73%
- Apparent t1/2 of C(XX) in plasma ([1]; 10 mg/kg oral C(XX), individual animals, M60 estimate may not be accurate): 32 min and 340 min
- AUC0-tlast/Dose of C(XX) in plasma ([1]; 10 mg/kg oral C(XX), mean ± SD): 0.660 ± 0.224 kg·ng·h/mL/mg
- Cmax/Dose of C(XX) in plasma ([1]; 10 mg/kg oral C(XX), mean ± SD): 0.747 ± 0.392 kg·ng/mL/mg
- F(%) of C(XX) ([1]; 10 mg/kg oral C(XX), mean ± SD, AUC0-tlast used): 1.24 ± 0.423%
- AUC0-inf/Dose [1, 3]: 53.0 ± 8.26 kg·ng·h/mL/mg
- AUC0-tlast/Dose [1, 3]: 52.8 ± 8.30 kg·ng·h/mL/mg
- AUC0-inf/Dose [1, 4]: 48.3 kg·ng·h/mL/mg and 62.5 kg·ng·h/mL/mg and 48.1 kg·ng·h/mL/mg
- AUC0-tlast [1, 4]: 48.0 ng·h/mL
- AUC0-tlast/Dose [1, 4]: 48.1 kg·ng·h/mL/mg and 62.4 kg·ng·h/mL/mg and 48.0 kg·ng·h/mL/mg
- AUC(0-inf) [1, 4]: 48.1 ng·h/mL
- Apparent t1/2 [1, 4]: 32.2 min
- C0 [1, 4]: 139 ng/mL
- CL [1, 4]: 346.28 mL/min/kg
- Vss [1, 4]: 8.913 L/kg
- Cmax/Dose ([1]; C(XX) in plasma, 1 mg/kg oral C(XX), Mean ± SD): 0.620 ± 0.0996 kg·ng/mL/mg
- Cmax/Dose [1, 5]: 0.702 kg·ng/mL/mg and 0.509 kg·ng/mL/mg and 0.648 kg·ng/mL/mg
- Tmax [1, 5]: 30 min
- AUC0-tlast/Dose [1, 6]: 0.458 ± 0.0457 kg·ng·h/mL/mg
- Cmax/Dose [1, 6]: 0.571 ± 0.0734 kg·ng/mL/mg
- Tmax ([1]; C(XX) in plasma, 3 mg/kg oral C(XX), per animal): 15 min
- AUC0-inf/Dose [1, 7]: 0.510 kg·ng·h/mL/mg
- AUC0-tlast [1, 7]: 1.42 ng·h/mL
- AUC0-tlast/Dose [1, 7]: 0.406 kg·ng·h/mL/mg and 0.494 kg·ng·h/mL/mg and 0.474 kg·ng·h/mL/mg
- Cmax/Dose [1, 7]: 0.497 kg·ng/mL/mg and 0.573 kg·ng/mL/mg and 0.643 kg·ng/mL/mg
- MRT0-inf [1, 7]: 49.4 min
- F ([1]; 3 mg/kg oral C(XX), Mean ± SD): 0.953 ± 0.132%
- F ([1]; 3 mg/kg oral C(XX), per animal, 3 mg/kg): 0.816% and 1.08%
- concentration at 5 min [1, 8]: 122 ± 26.1 ng/mL
- concentration at 5 min [1, 9]: 109 ng/mL
- concentration at 0.25 h [1, 8]: 70.5 ± 12.7 ng/mL
- concentration at 0.25 h [1, 9]: 66.5 ng/mL
- concentration at 0.5 h [1, 8]: 32 ± 5.9 ng/mL
- concentration at 0.5 h [1, 9]: 26.1 ng/mL
- concentration at 1 h [1, 8]: 8.43 ± 0.438 ng/mL
- concentration at 1 h [1, 9]: 8.93 ng/mL
- concentration at 2 h ([1]; male, C57Bl/6, mouse, plasma, 1 mg/kg, 1 mg/kg i.v. C(XX), 2 h, Mean ± SD): 1.05 ± 0.0871 ng/mL
- concentration at 2 h ([1]; male, C57Bl/6, mouse, plasma, 1 mg/kg, 1 mg/kg i.v. C(XX), 2 h, per animal, BLQ <0.25 ng/mL): 0.968 ng/mL
- concentration at 4 h ([1]; male, C57Bl/6, mouse, plasma, 1 mg/kg, 1 mg/kg i.v. C(XX), 4 h, Mean ± SD): 0.181 ± 0.0663 ng/mL
- concentration at 4 h ([1]; male, C57Bl/6, mouse, plasma, 1 mg/kg, 1 mg/kg i.v. C(XX), 4 h, per animal, BLQ <0.25 ng/mL): 0.257 ng/mL
- half-life ([1]; male, C57Bl/6, mouse, plasma, iv, 1 mg/kg, 1 mg/kg i.v. C(XX), mean ± SD, read-out: Apparent t1/2 of C(XX) in plasma (converted)): 33.8 min
- clearance ([1]; male, C57Bl/6, mouse, plasma, iv, 1 mg/kg, C(XX) in plasma, 1 mg/kg i.v. C(XX), Mean ± SD): 320 mL/min/kg
